Laboratory results: patent publication US10596172B2 (Celgene CAR LLC, priority 2008, dated 2020)
Where two headings read alike, the source gives them in different places.

System: B cell lymphoma cell lines
Assay: B cell lymphoma proliferation assay
Assay type: cell-based
[1] = Homo sapiens, DOHH-2, DOHH2 B cell lymphoma cell line, read-out: EC50 (μM) DOHH2
[2] = Homo sapiens, WSUDLCL2, WSU-DLCL2 B cell lymphoma cell line, read-out: EC50 (μM) WSU-DLCL2
[3] = DHL4 B cell lymphoma cell line, read-out: EC50 (μM) DHL4

Row | EC50 [1] | EC50 [2] | EC50 [3] | SMILES
1 | 0.1 to 1 µM | – | – | C=CC(=O)Nc1cccc(Nc2nc(Nc3ccc(N(C)CCOC)nc3)ncc2F)c1 [Compound I-77, N-(3-(5-fluoro-2-(6-((2-methoxyethyl)(methyl)amino)pyridin-3-ylamino)pyrimidin-4-ylamino)phenyl)acrylamide]
2 | 0.1 to 1 µM | – | – | C=CC(=O)Nc1cccc(Nc2nc(Nc3ccc(OCC4CCN(C)CC4)nc3)ncc2F)c1 [Compound I-78, N-(3-(5-fluoro-2-(6-((1-methylpiperidin-4-yl)methoxy)pyridin-3-ylamino)pyrimidin-4-ylamino)phenyl)acrylamide]
3 | 0.1 to 1 µM | – | – | C=CC(=O)Nc1cccc(Nc2nc(Nc3ccc(OCCCS(C)(=O)=O)nc3)ncc2F)c1 [Compound I-80, N-(3-(5-fluoro-2-(6-(3-(methylsulfonyl)propoxy)pyridin-3-ylamino)pyrimidin-4-ylamino)phenyl)acrylamide]
4 | 0.1 to 1 µM | – | – | C=CC(=O)Nc1cccc(Oc2nc(Nc3cccc(OCC4CCCN(C)C4)c3)ncc2F)c1 (stereo not shown) [Compound I-81, N-(3-(5-fluoro-2-(3-((1-methylpiperidin-3-yl)methoxy)phenylamino)pyrimidin-4-yloxy)phenyl)acrylamide]
5 | > 10 µM | – | – | C=CC(=O)Nc1cccc(Nc2nc(Nc3ccc(OCc4ccccn4)c(Cl)c3)ncc2F)c1 [Compound I-86, N-(3-(2-(3-chloro-4-(pyridin-2-ylmethoxy)phenylamino)-5-fluoropyrimidin-4-ylamino)phenyl)acrylamide]
6 | 1 to 10 µM | – | – | C=CC(=O)Nc1cc(Nc2nc(Nc3ccc(OCCOC)cc3)ncc2F)ccc1F [Compound I-87, N-(2-fluoro-5-(5-fluoro-2-(4-(2-methoxyethoxy)phenylamino)pyrimidin-4-ylamino)phenyl)acrylamide]
7 | 1 to 10 µM | – | – | COCCOc1ccc(Nc2ncc(F)c(Nc3cccc(NC(=O)/C=C/CN4CC[C@H](O)C4)c3)n2)cc1 [Compound I-88, (S,E)-N-(3-(5-fluoro-2-(4-(2-methoxyethoxy)phenylamino)pyrimidin-4-ylamino)phenyl)-4-(3-hydroxypyrrolidin-1-yl)but-2-enamide]
8 | 1 to 10 µM | – | – | COCCOc1ccc(Nc2ncc(F)c(Nc3cccc(NC(=O)/C=C/CN4CC[C@@H](O)C4)c3)n2)cc1 [Compound I-89, (R,E)-N-(3-(5-fluoro-2-(4-(2-methoxyethoxy)phenylamino)pyrimidin-4-ylamino)phenyl)-4-(3-hydroxypyrrolidin-1-yl)but-2-enamide]
9 | 0.1 to 1 µM | – | – | C=CC(=O)Nc1cccc(Nc2nc(Nc3ccc(OCC4CCN(C)CC4)cc3)ncc2F)c1 [Compound I-90, N-(3-(5-fluoro-2-(4-((1-methylpiperidin-4-yl)methoxy)phenylamino)pyrimidin-4-ylamino)phenyl)acrylamide]
10 | 1 to 10 µM | 1 to 10 µM | – | C=CC(=O)Nc1cccc(Nc2nc(Nc3cccc(OC(C)(C)CO)c3)ncc2F)c1 [Compound I-91, N-(3-(5-fluoro-2-(3-(1-hydroxy-2-methylpropan-2-yloxy)phenylamino)pyrimidin-4-ylamino)phenyl)acrylamide]
11 | – | 1 to 10 µM | – | C=CC(=O)Nc1cccc(Nc2nc(Nc3ccc(OCCOC)nc3)ncc2F)c1 [Compound I-103, N-(3-(5-fluoro-2-(6-(2-methoxyethoxy)pyridine-3-ylamino)pyrimidin-4-ylamino)phenyl)acrylamide]
12 | 0.1 to 1 µM | 1 to 10 µM | – | C=CC(=O)Nc1cccc(Nc2nc(Nc3cccc(OCCO)c3)ncc2F)c1 [Compound I-105, N-(3-(5-fluoro-2-(3-(2-hydroxyethoxy)phenylamino)pyrimidin-4-ylamino)phenyl)acrylamide]
13 | 1 to 10 µM | – | – | C=CC(=O)Nc1cccc(Nc2nc(Nc3ccc(OCCO)nc3)ncc2C(C)=O)c1 [Compound I-121, N-(3-{5-Acetyl-2-[6-(2-hydroxy-ethoxy)-pyridin-3-ylamino]-pyrimidin-4-ylamino}-phenyl)-acrylamide]
14 | 1 to 10 µM | – | – | C=CC(=O)Nc1cccc(Nc2nc(Nc3ccc(OCCOC)nc3)ncc2C(C)=O)c1 [Compound I-122, N-(3-{5-Acetyl-2-[6-(2-methoxy-ethoxy)-pyridin-3-ylamino]-pyrimidin-4-ylamino}-phenyl)-acrylamide]
15 | 1 to 10 µM | – | – | C=CC(=O)Nc1cccc(Nc2nc(Nc3ccc(OCCOC)cc3)ncc2C(C)=O)c1 [Compound I-124, N-(3-{5-Acetyl-2-[4-(2-methoxy-ethoxy)-phenylamino]-pyrimidin-4-ylamino}-phenyl)-acrylamide]
16 | < 0.1 µM | – | – | C=CC(=O)Nc1cccc(Nc2nc(Nc3ccc4c(c3)N(C)CCO4)ncc2F)c1 [Compound I-126, N-(3-(2-(4-methyl-2,3-dihydrobenzo[1,4]oxazin-6-yl)amino-5-fluoropyrimidin-4-ylamino)phenyl)acrylamide]
17 | 1 to 10 µM | – | – | C=CC(=O)N1CCOc2ccc(Nc3nc(Nc4ccc(OCCO)nc4)ncc3C(C)=O)cc21 [Compound I-128, 1-(6-{5-Acetyl-2-[6-(2-hydroxy-ethoxy)-pyridin-3-ylamino]-pyrimidin-4-ylamino}-2,3-dihydro-benzo[1,4]oxazin-4-yl)-propenone]

Row | EC50 [1] | EC50 [2] | EC50 [3] | SMILES
18 | 1 to 10 µM | – | – | C=CC(=O)N1CCOc2ccc(Nc3nc(Nc4ccc5c(c4)CC(=O)N5)ncc3C(C)=O)cc21 [Compound I-129, 5-[5-Acetyl-4-(4-acryloyl-3,4-dihydro-2H-benzo[1,4]oxazin-6-ylamino)-pyrimidin-2-ylamino]-1,3-dihydro-indol-2-one]
19 | 1 to 10 µM | – | 1 to 10 µM | C=CC(=O)N1Cc2ccc(Nc3nc(Nc4cccc(OC)c4)ncc3C(F)(F)F)cc2C1 [Compound I-132, 1-(5-(5-trifluoromethyl-2-(3-methoxyphenylamino)pyrimidin-4-yl)amino-1,3-dihydroisoindol-2-yl)2-propen-1-one]
20 | 0.1 to 1 µM | – | < 0.1 µM | C=CC(=O)Nc1cccc(Nc2nc(Nc3cc(OC)c(OC)c(OC)c3)ncc2F)c1 [Compound I-133, 4-(3-acrylamidophenylamino)-5-fluoro-2-(3,4,5-trimethoxyphenylamino)-pyrimidine]
21 | 0.1 to 1 µM | – | < 0.1 µM | C=CC(=O)Nc1cccc(Nc2nc(Nc3ccc(OC)c(OC)c3)ncc2F)c1 [Compound I-134, 4-(3acrylamidophenylamino)-5-fluoro-2-(3,4-dimethoxyphenylamino)-pyrimidine]
22 | > 10 µM | – | > 10 µM | C=CC(=O)N1CCC[C@@H](Nc2nc(Nc3cccc(OCCN4CCOCC4)c3)ncc2F)C1 [Compound I-135, (R)-1-(3-(5-fluoro-2-(3-(2-morpholinoethoxy)phenylamino)pyrimidin-4-ylamino)piperidin-1-yl)prop-2-en-1-one]
23 | 1 to 10 µM | – | 1 to 10 µM | C=CC(=O)Nc1cccc(Nc2nc(Nc3cccc(OCCCS(C)(=O)=O)c3)ncc2F)c1 [Compound I-138, 4-(3-acrylamidophenylamino)-5-fluoro-2-(3-(3-(methylsulfonyl)propoxy)phenylamino)-pyrimidine]
24 | 1 to 10 µM | – | – | C=CC(=O)N1CCOc2ccc(Nc3nc(Nc4ccc(OCCOC)cc4)ncc3F)cc21 [Compound I-141, 1-(6-(5-fluoro-2-(4-(2-methoxyethoxy)phenylamino)pyrimidin-4-ylamino)-2H-benzo[b][1,4]oxazin-4(3H)-yl)prop-2-en-1-one]
25 | 1 to 10 µM | – | – | C=CC(=O)N1CCOc2ccc(Nc3nc(Nc4ccc(N(C)C(=O)C(F)(F)F)nc4)ncc3C(C)=O)cc21 [Compound I-142, N-(5-(5-acetyl-4-(4-acryloyl-3,4-dihydro-2H-benzo[b][1,4]oxazin-6-ylamino)pyrimidin-2-ylamino)pyridin-2-yl)-2,2,2-trifluoro-N-methylacetamide]
26 | 1 to 10 µM | 1 to 10 µM | 1 to 10 µM | C=CC(=O)Nc1cccc(Nc2nc(Nc3ccc4c(c3)N(C(=O)C(F)(F)F)CCO4)ncc2F)c1 [Compound I-143, N-(3-(2-(4-trifluoroacetyl-2,3-dihydrobenzo[1,4]oxazin-6-yl)amino-5-fluoropyrimidin-4-ylamino)phenyl)acrylamide]
27 | 1 to 10 µM | – | – | C=CC(=O)N1CCC[C@@H](Nc2nc(Nc3cccc(Cl)c3)ncc2F)C1 [Compound I-147, (R)-1-(3-(2-(3-chlorophenylamino)-5-fluoropyrimidin-4-ylamino)piperidin-1-yl)prop-2-en-1-one]
28 | 1 to 10 µM | 1 to 10 µM | 1 to 10 µM | C=CC(=O)N1CCOc2ccc(Nc3nc(Nc4ccc(OCCOC)cc4)ncc3C(C)=O)cc21 [Compound I-150, 1-(6-{5-Acetyl-2-[4-(2-methoxy-ethoxy)-phenylamino]-pyrimidin-4-ylamino}-2,3-dihydro-benzo[1,4]oxazin-4-yl)-propenone]
29 | 1 to 10 µM | – | 1 to 10 µM | C=CC(=O)Nc1cccc(Nc2nc(Nc3ccc4c(cnn4C(=O)OC(C)(C)C)c3)ncc2F)c1 [Compound I-151]
30 | 1 to 10 µM | – | – | C=CC(=O)N1CCOc2ccc(Nc3nc(Nc4ccc(N5CCCC5=O)cc4)ncc3C(C)=O)cc21 [Compound I-152, 1-{4-[5-Acetyl-4-(4-acryloyl-3,4-dihydro-2H-benzo[1,4]oxazin-6-ylamino)-pyrimidin-2-ylamino]-phenyl}-pyrrolidin-2-one]
31 | 1 to 10 µM | 1 to 10 µM | 1 to 10 µM | C=CC(=O)Nc1cccc(Nc2nc(Nc3ccc4c(cnn4C)c3)ncc2F)c1 [Compound I-155]
32 | 0.1 to 1 µM | 1 to 10 µM | 1 to 10 µM | C=CC(=O)Nc1cccc(Nc2nc(Nc3ccc4[nH]ncc4c3)ncc2F)c1 [Compound I-156]
33 | 1 to 10 µM | 1 to 10 µM | 1 to 10 µM | C=CC(=O)Nc1cccc(Nc2nc(Nc3ccccc3)ncc2C#N)c1 [Compound I-157, N-(3-(5-cyano-2-(phenylamino)pyrimidin-4-ylamino)phenyl)acrylamide]
34 | 1 to 10 µM | 1 to 10 µM | 1 to 10 µM | C=CC(=O)Nc1cccc(Nc2nc(Nc3cccc(OC)c3)ncc2OC)c1 [Compound I-158, N-(3-(5-methoxy-2-(3-methoxyphenylamino)pyrimidin-4-ylamino)phenyl)acrylamide]

Row | SMILES | EC50 [1] | EC50 [2] | EC50 [3]
35 | C=CC(=O)Nc1cccc(Nc2nc(Nc3ccc(OC4CCC4)nc3)ncc2F)c1 [Compound I-79, N-(3-(2-(6-cyclobutoxypyridin-3-ylamino)-5-fluoropyrimidin-4-ylamino)phenyl)acrylamide] | 1 to 10 µM | – | –
